Assay results reported in PubChem BioAssay AID1963825 (Molecular Pharmacology Branch, DTP, NCI, 2024).

Experiment: Anticancer human tumor 997537-175-T-J1-PDC patient-derived colon adenocarcinoma cell line growth inhibition [POLQ]
Settings: 997537-175-T-J1-PDC complex spheroid viability, combination with POLQ inhibitors; for IC50: curve of first compound; for viability, T/C: stronger effect = lower value
Outline: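 Complex spheroid viability model combining PDC tumour cells with endothelial (HUVEC) and MSC stromal cells. Novobiocin, ART-558 or RP6685 were tested singly and in combination with standard and investigational anticancer drugs. Each was titrated in half-log steps from near clinical Cmax, or from 10 microM where Cmax was unknown.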

[1] = second compound 0.0316 µM, first compound 0.0316 µM
[2] = second compound 0.0316 µM, first compound 0.1 µM
[3] = second compound 0.0316 µM, first compound 0.316 µM
[4] = second compound 0.0316 µM, first compound 1 µM
[5] = second compound 0.0316 µM, first compound 3.16 µM
[6] = second compound 0.0316 µM, first compound 10 µM
[7] = second compound 0.1 µM, first compound 0.0316 µM
[8] = second compound 0.1 µM, first compound 0.1 µM
[9] = second compound 0.1 µM, first compound 0.316 µM
[10] = second compound 0.1 µM, first compound 1 µM
[11] = second compound 0.1 µM, first compound 3.16 µM
[12] = second compound 0.1 µM, first compound 10 µM
[13] = second compound 0.316 µM, first compound 0.0316 µM
[14] = second compound 0.316 µM, first compound 0.1 µM
[15] = second compound 0.316 µM, first compound 0.316 µM
[16] = second compound 0.316 µM, first compound 1 µM
[17] = second compound 0.316 µM, first compound 3.16 µM
[18] = second compound 0.316 µM, first compound 10 µM
[19] = second compound 1 µM, first compound 0.0316 µM
[20] = second compound 1 µM, first compound 0.1 µM
[21] = second compound 1 µM, first compound 0.316 µM
[22] = second compound 1 µM, first compound 1 µM
[23] = second compound 1 µM, first compound 3.16 µM
[24] = second compound 1 µM, first compound 10 µM
[25] = second compound 3.16 µM, first compound 0.0316 µM
[26] = second compound 3.16 µM, first compound 0.1 µM
[27] = second compound 3.16 µM, first compound 0.316 µM
[28] = second compound 3.16 µM, first compound 1 µM
[29] = second compound 3.16 µM, first compound 3.16 µM
[30] = second compound 3.16 µM, first compound 10 µM
[31] = second compound 10 µM, first compound 0.0316 µM
[32] = second compound 10 µM, first compound 0.1 µM
[33] = second compound 10 µM, first compound 0.316 µM
[34] = second compound 10 µM, first compound 1 µM
[35] = second compound 10 µM, first compound 3.16 µM
[36] = second compound 10 µM, first compound 10 µM
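Also: luminescence signal used as a surrogate for viable cells; spheroids exposed to drugs for seven days before readout.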

## COc1cc(C2c3cc4c(cc3C(OC3OC5COC(C)OC5C(O)C3O)C3COC(=O)C23)OCO4)cc(OC)c1O (stereo not given) + Cc1cccc(N(C)C(=O)C2C(O)CCN2c2nc(C)cc(C(F)(F)F)c2C#N)c1
Second compound 0.0316 µM
  IC50: > 10 µM
Second compound 0.1 µM
  IC50: > 10 µM
Second compound 0.316 µM
  IC50: > 10 µM
Second compound 1 µM
  IC50: > 10 µM
Second compound 3.16 µM
  IC50: > 10 µM
Second compound 10 µM
  IC50: > 10 µM
[1]
  viability, T/C: 100%
[2]
  viability, T/C: 99.4%
[3]
  viability, T/C: 95.5%
[4]
  viability, T/C: 97.7%
[5]
  viability, T/C: 75.2%
[6]
  viability, T/C: 68.9%
[7]
  viability, T/C: 96.3%
[8]
  viability, T/C: 109%
[9]
  viability, T/C: 94.6%
[10]
  viability, T/C: 102%
[11]
  viability, T/C: 75.1%
[12]
  viability, T/C: 61.9%
[13]
  viability, T/C: 99.8%
[14]
  viability, T/C: 102%
[15]
  viability, T/C: 96.3%
[16]
  viability, T/C: 97.2%
[17]
  viability, T/C: 85%
[18]
  viability, T/C: 52.8%
[19]
  viability, T/C: 103%
[20]
  viability, T/C: 105%
[21]
  viability, T/C: 104%
[22]
  viability, T/C: 110%
[23]
  viability, T/C: 82%
[24]
  viability, T/C: 51.2%
[25]
  viability, T/C: 89.5%
[26]
  viability, T/C: 86.2%
[27]
  viability, T/C: 102%
[28]
  viability, T/C: 93.3%
[29]
  viability, T/C: 77.3%
[30]
  viability, T/C: 69.4%
[31]
  viability, T/C: 112%
[32]
  viability, T/C: 91.3%
[33]
  viability, T/C: 106%
[34]
  viability, T/C: 91.9%
[35]
  viability, T/C: 76.3%
[36]
  viability, T/C: 64.6%

## O=c1[nH]cc(F)c(=O)[nH]1 + Nc1ccc(C#CCN(C(=O)Cc2ncc(C(F)(F)F)cc2C(F)(F)F)c2ccc(F)cc2)nn1
Second compound 0.0316 µM
  IC50: > 10 µM
Second compound 0.1 µM
  IC50: > 10 µM
Second compound 0.316 µM
  IC50: > 10 µM
Second compound 1 µM
  IC50: > 10 µM
Second compound 3.16 µM
  IC50: > 10 µM
Second compound 10 µM
  IC50: > 10 µM
[1]
  viability, T/C: 98.7%
[2]
  viability, T/C: 105%
[3]
  viability, T/C: 109%
[4]
  viability, T/C: 84.9%
[5]
  viability, T/C: 95.7%
[6]
  viability, T/C: 79%
[7]
  viability, T/C: 106%
[8]
  viability, T/C: 99.8%
[9]
  viability, T/C: 95.9%
[10]
  viability, T/C: 103%
[11]
  viability, T/C: 82.6%
[12]
  viability, T/C: 88.1%
[13]
  viability, T/C: 95%
[14]
  viability, T/C: 102%
[15]
  viability, T/C: 103%
[16]
  viability, T/C: 105%
[17]
  viability, T/C: 85%
[18]
  viability, T/C: 94.1%
[19]
  viability, T/C: 94.2%
[20]
  viability, T/C: 93.9%
[21]
  viability, T/C: 83.7%
[22]
  viability, T/C: 85.8%
[23]
  viability, T/C: 73.5%
[24]
  viability, T/C: 79.9%
[25]
  viability, T/C: 101%
[26]
  viability, T/C: 110%
[27]
  viability, T/C: 118%
[28]
  viability, T/C: 86.2%
[29]
  viability, T/C: 88.6%
[30]
  viability, T/C: 72.5%
[31]
  viability, T/C: 105%
[32]
  viability, T/C: 94.5%
[33]
  viability, T/C: 103%
[34]
  viability, T/C: 91.2%
[35]
  viability, T/C: 84.1%
[36]
  viability, T/C: 81%

## CCc1cc2c(N3CCc4c(cc(Cn5ccnc5)cc4-c4cn(C)nc4C(F)(F)F)C3=O)ccnc2c(OC)n1 + Cc1cccc(N(C)C(=O)C2C(O)CCN2c2nc(C)cc(C(F)(F)F)c2C#N)c1
Second compound 0.0316 µM
  IC50: > 10 µM
Second compound 0.1 µM
  IC50: > 10 µM
Second compound 0.316 µM
  IC50: > 10 µM
Second compound 1 µM
  IC50: > 10 µM
Second compound 3.16 µM
  IC50: > 10 µM
Second compound 10 µM
  IC50: > 10 µM
[1]
  viability, T/C: 104%
[2]
  viability, T/C: 107%
[3]
  viability, T/C: 90.7%
[4]
  viability, T/C: 93.2%
[5]
  viability, T/C: 90.6%
[6]
  viability, T/C: 73.4%
[7]
  viability, T/C: 110%
[8]
  viability, T/C: 110%
[9]
  viability, T/C: 94.8%
[10]
  viability, T/C: 95.5%
[11]
  viability, T/C: 71%
[12]
  viability, T/C: 58.3%
[13]
  viability, T/C: 107%
[14]
  viability, T/C: 108%
[15]
  viability, T/C: 86.2%
[16]
  viability, T/C: 72%
[17]
  viability, T/C: 78.5%
[18]
  viability, T/C: 65.5%
[19]
  viability, T/C: 95.9%
[20]
  viability, T/C: 104%
[21]
  viability, T/C: 100%
[22]
  viability, T/C: 83.3%
[23]
  viability, T/C: 64.9%
[24]
  viability, T/C: 66.5%
[25]
  viability, T/C: 83.9%
[26]
  viability, T/C: 86.9%
[27]
  viability, T/C: 96.3%
[28]
  viability, T/C: 81.5%
[29]
  viability, T/C: 81.7%
[30]
  viability, T/C: 70.1%
[31]
  viability, T/C: 87.8%
[32]
  viability, T/C: 92.7%
[33]
  viability, T/C: 79.5%
[34]
  viability, T/C: 67.1%
[35]
  viability, T/C: 64.1%
[36]
  viability, T/C: 75.2%

## COc1ccc([C@@H](O)c2cc(-c3ncnc4cc(N5CCOCC5)ccc34)c(F)cc2Cl)nn1 + Nc1ccc(C#CCN(C(=O)Cc2ncc(C(F)(F)F)cc2C(F)(F)F)c2ccc(F)cc2)nn1
Second compound 0.0316 µM
  IC50: > 10 µM
Second compound 0.1 µM
  IC50: > 10 µM
Second compound 0.316 µM
  IC50: > 10 µM
Second compound 1 µM
  IC50: > 10 µM
Second compound 3.16 µM
  IC50: > 10 µM
Second compound 10 µM
  IC50: > 10 µM
[1]
  viability, T/C: 95%
[2]
  viability, T/C: 110%
[3]
  viability, T/C: 100%
[4]
  viability, T/C: 101%
[5]
  viability, T/C: 85%
[6]
  viability, T/C: 74.3%
[7]
  viability, T/C: 98.8%
[8]
  viability, T/C: 110%
[9]
  viability, T/C: 99%
[10]
  viability, T/C: 98.3%
[11]
  viability, T/C: 71.5%
[12]
  viability, T/C: 71%
[13]
  viability, T/C: 110%
[14]
  viability, T/C: 109%
[15]
  viability, T/C: 91%
[16]
  viability, T/C: 99.1%
[17]
  viability, T/C: 96.1%
[18]
  viability, T/C: 65.6%
[19]
  viability, T/C: 96%
[20]
  viability, T/C: 98.2%
[21]
  viability, T/C: 94.7%
[22]
  viability, T/C: 91.6%
[23]
  viability, T/C: 79.3%
[24]
  viability, T/C: 94.2%
[25]
  viability, T/C: 107%
[26]
  viability, T/C: 99.1%
[27]
  viability, T/C: 96.7%
[28]
  viability, T/C: 96.6%
[29]
  viability, T/C: 87.6%
[30]
  viability, T/C: 82.1%
[31]
  viability, T/C: 99.5%
[32]
  viability, T/C: 107%
[33]
  viability, T/C: 95.7%
[34]
  viability, T/C: 95.8%
[35]
  viability, T/C: 85.3%
[36]
  viability, T/C: 92.7%

## CCc1cc2c(N3CCc4c(cc(Cn5ccnc5)cc4-c4cn(C)nc4C(F)(F)F)C3=O)cc(C)nc2c(OC)n1 + Cc1cccc(N(C)C(=O)C2C(O)CCN2c2nc(C)cc(C(F)(F)F)c2C#N)c1
Second compound 0.0316 µM
  IC50: > 10 µM
Second compound 0.1 µM
  IC50: > 10 µM
Second compound 0.316 µM
  IC50: > 10 µM
Second compound 1 µM
  IC50: > 10 µM
Second compound 3.16 µM
  IC50: > 10 µM
Second compound 10 µM
  IC50: > 10 µM
[1]
  viability, T/C: 109%
[2]
  viability, T/C: 113%
[3]
  viability, T/C: 97%
[4]
  viability, T/C: 82.8%
[5]
  viability, T/C: 87.1%
[6]
  viability, T/C: 52.4%
[7]
  viability, T/C: 108%
[8]
  viability, T/C: 105%
[9]
  viability, T/C: 84.1%
[10]
  viability, T/C: 90.6%
[11]
  viability, T/C: 75.2%
[12]
  viability, T/C: 74.6%
[13]
  viability, T/C: 83.5%
[14]
  viability, T/C: 103%
[15]
  viability, T/C: 82.6%
[16]
  viability, T/C: 84.1%
[17]
  viability, T/C: 82.9%
[18]
  viability, T/C: 60.9%
[19]
  viability, T/C: 91.2%
[20]
  viability, T/C: 91.7%
[21]
  viability, T/C: 85.9%
[22]
  viability, T/C: 86.9%
[23]
  viability, T/C: 111%
[24]
  viability, T/C: 63.3%
[25]
  viability, T/C: 97.1%
[26]
  viability, T/C: 115%
[27]
  viability, T/C: 92.2%
[28]
  viability, T/C: 82.7%
[29]
  viability, T/C: 61.6%
[30]
  viability, T/C: 59.5%
[31]
  viability, T/C: 102%
[32]
  viability, T/C: 91.8%
[33]
  viability, T/C: 105%
[34]
  viability, T/C: 77.2%
[35]
  viability, T/C: 74%
[36]
  viability, T/C: 53.6%
